Measurements published in PubChem BioAssay (NCI).
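Results reflect a 48-hour exposure of cells in 96-well plates to compound at five concentrations. GI50 is the concentration that inhibits growth by half. TGI denotes the concentration required for complete inhibition of growth.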

What was measured:
Assay in all cases: inhibition of tumour cell growth, NCI panel, 48 h
[1] = tested on: UACC-257 melanoma
[2] = tested on: 786-0 renal
[3] = tested on: MCF7 breast
[4] = tested on: HCC-2998 colon
[5] = tested on: SF-295 CNS
[6] = tested on: NCI-H460 lung
[7] = tested on: SF-268 CNS
[8] = tested on: NCI-H226 lung
[9] = tested on: CCRF-CEM leukemia
[10] = tested on: A498 renal
[11] = tested on: HOP-62 NSCLC
[12] = tested on: U251 CNS
[13] = tested on: RPMI-8226 leukemia
[14] = tested on: HL-60(TB) leukemia
[15] = tested on: HCT-15 colon
[16] = tested on: SN12C renal
[17] = tested on: SNB-75 CNS
[18] = tested on: ACHN renal
[19] = tested on: TK-10 renal
[20] = tested on: OVCAR-3 ovarian
[21] = tested on: SK-MEL-28 melanoma
[22] = tested on: OVCAR-8 ovarian
[23] = tested on: SK-MEL-5 melanoma
[24] = tested on: NCI-H23 lung
[25] = tested on: MALME-3M melanoma
[26] = tested on: K-562 leukemia
[27] = tested on: PC-3 prostate
[28] = tested on: SW-620 colon
[29] = tested on: SF-539 CNS
[30] = tested on: HT29 colon
[31] = tested on: SNB-19 CNS
[32] = tested on: UACC-62 melanoma
[33] = tested on: UO-31 renal
[34] = tested on: RXF 393 renal
[35] = tested on: T-47D breast
[36] = tested on: HCT-116 colon
[37] = tested on: NCI-H522 lung
[38] = tested on: SK-MEL-2 melanoma
[39] = tested on: SR leukemia
[40] = tested on: OVCAR-5 ovarian
[41] = tested on: MOLT-4 leukemia
[42] = tested on: SK-OV-3 ovarian
[43] = tested on: KM12 colon
[44] = tested on: OVCAR-4 ovarian
[45] = tested on: M14 melanoma
[46] = tested on: DU-145 prostate
[47] = tested on: BT-549 breast
[48] = tested on: IGROV1 ovarian
[49] = tested on: A549 NSCLC
[50] = tested on: CAKI-1 renal
[51] = tested on: NCI/ADR-RES ovarian
[52] = tested on: MDA-MB-435
[53] = tested on: LOX IMVI melanoma
[54] = tested on: COLO 205 colon
[55] = tested on: HS 578T breast
[56] = tested on: MDA-MB-231 breast

## Cn1cc(C2=C(c3cn(CCCO)c4ccccc34)C(=O)NC2=O)c2ccccc21
[1]
  GI50: 8.15 µM
  TGI: 24.7 µM
[2]
  GI50: 7.03 µM
  TGI: > 22.8 µM
[3]
  GI50: 2660 nM
  TGI: 17.4 µM
[4]
  GI50: 7.83 µM
  TGI: > 25 µM
[5]
  GI50: 5.11 µM
  TGI: > 17 µM
[6]
  GI50: 4.9 µM
  TGI: 12.5 µM
[7]
  GI50: 6.11 µM
  TGI: 17.6 µM
[8]
  GI50: 5.05 µM
  TGI: 19.1 µM
[9]
  GI50: 3.01 µM
  TGI: 18.2 µM
[10]
  GI50: 5.45 µM
  TGI: 13.9 µM
[11]
  GI50: 7 µM
  TGI: 19.5 µM
[12]
  GI50: 6.15 µM
  TGI: 19.3 µM
[13]
  GI50: 5.97 µM
  TGI: 15 µM
[14]
  GI50: 6.1 µM
  TGI: 15.3 µM
[15]
  GI50: 3.33 µM
  TGI: > 25 µM
[16]
  GI50: 5.25 µM
  TGI: > 25 µM
[17]
  GI50: 3.11 µM
  TGI: 12.3 µM
[18]
  GI50: 4.99 µM
  TGI: 19.8 µM
[19]
  GI50: 3.96 µM
  TGI: 13.3 µM
[20]
  GI50: 6 µM
  TGI: > 19.5 µM
[21]
  GI50: 6.49 µM
  TGI: 18.8 µM
[22]
  GI50: 6.4 µM
  TGI: > 21.1 µM
[23]
  GI50: 4.2 µM
  TGI: 10.8 µM
[24]
  GI50: 5.37 µM
  TGI: 18 µM
[25]
  GI50: 8.52 µM
  TGI: 21.3 µM
[26]
  GI50: 5.61 µM
  TGI: > 25 µM
[27]
  GI50: 6.8 µM
  TGI: 24.6 µM
[28]
  GI50: 7.11 µM
  TGI: > 25 µM
[29]
  GI50: 4.57 µM
  TGI: 11.4 µM
[30]
  GI50: 5.4 µM
  TGI: > 19.3 µM
[31]
  GI50: 9.36 µM
  TGI: > 25 µM
[32]
  GI50: 5.56 µM
  TGI: 12.3 µM
[33]
  GI50: 4.04 µM
  TGI: 14 µM
[34]
  GI50: 3.87 µM
  TGI: 9.56 µM
[35]
  GI50: 4.94 µM
  TGI: 18.6 µM
[36]
  GI50: 4.62 µM
  TGI: > 17.7 µM
[37]
  GI50: 3.47 µM
  TGI: 13.2 µM
[38]
  GI50: 1790 nM
  TGI: 4.72 µM
[39]
  GI50: 2710 nM
  TGI: > 19.1 µM
[40]
  GI50: 11.4 µM
  TGI: > 25 µM
[41]
  GI50: 6.05 µM
  TGI: > 20.7 µM
[42]
  GI50: 4.29 µM
  TGI: > 22.1 µM
[43]
  GI50: 1770 nM
  TGI: 16.8 µM
[44]
  GI50: 4.63 µM
  TGI: > 20.7 µM
[45]
  GI50: 7.29 µM
  TGI: > 25 µM
[46]
  GI50: 6.97 µM
  TGI: > 22.5 µM
[47]
  GI50: 3.76 µM
  TGI: 11.5 µM
[48]
  GI50: 6.04 µM
  TGI: 16.6 µM
[49]
  GI50: 5.68 µM
  TGI: 17.5 µM
[50]
  GI50: 3.93 µM
  TGI: 16.9 µM
[51]
  GI50: 7.23 µM
  TGI: > 22.8 µM
[52]
  GI50: 2340 nM
  TGI: > 25 µM
[53]
  GI50: 6.12 µM
  TGI: > 21.4 µM
[54]
  GI50: 5.39 µM
  TGI: 16 µM
[55]
  GI50: 5.35 µM
  TGI: 17.3 µM
[56]
  GI50: 9.38 µM
  TGI: > 25 µM
